Measured values reported in the NIST ThermoML archive (doi:10.1021/je900596d).

Details: 362.9 K, Liquid, Vibrating tube method

FC(F)=C(F)C(F)(F)F [hexafluoropropene]
Details	mass density [kg/m3]
5080.8 kPa	959.79
5112.9 kPa	961.66
5146 kPa	963.53
5179.5 kPa	965.35
5212.8 kPa	967.09
5246.7 kPa	968.92
5279.6 kPa	970.74
5314.8 kPa	972.51
5347.4 kPa	974.13
5381.2 kPa	975.88
5415.7 kPa	977.6
5518.8 kPa	982.72
5553.4 kPa	984.34
5588.2 kPa	985.96
5623.1 kPa	987.64
5657.5 kPa	989.1
5693.5 kPa	990.75
5727.5 kPa	992.15
5764.4 kPa	993.86
5798.2 kPa	995.17
5832.3 kPa	996.63
5864.9 kPa	997.97
5898.1 kPa	999.35
5930.9 kPa	1000.69
5965 kPa	1002.21
6035.1 kPa	1005.02
6069.8 kPa	1006.31
6105.1 kPa	1007.76
6137.3 kPa	1008.98
6172 kPa	1010.25
6204.9 kPa	1011.55
6239.5 kPa	1012.84
6274 kPa	1014.15
6308.5 kPa	1015.34
6343.7 kPa	1016.69
6377.6 kPa	1017.96
6413.1 kPa	1019.11
6447.2 kPa	1020.3
6480.8 kPa	1021.47
6516.3 kPa	1022.68
6550 kPa	1023.83
6584.4 kPa	1025.06
6618.1 kPa	1026.09
6653.8 kPa	1027.34
6686.8 kPa	1028.37
6720.5 kPa	1029.53
6754.6 kPa	1030.75
6789.1 kPa	1031.78
6824.9 kPa	1032.91
6860.3 kPa	1034.08
6893.3 kPa	1035.1
6959.4 kPa	1037.09
6993.3 kPa	1038.11
7029.7 kPa	1039.21
7062.9 kPa	1040.15
7097.9 kPa	1041.26
7134 kPa	1042.28
7168.5 kPa	1043.39
7202.4 kPa	1044.3
7237.6 kPa	1045.38
7273.1 kPa	1046.4
7307.6 kPa	1047.38
7378 kPa	1049.33
7411.6 kPa	1050.3
7482.4 kPa	1052.26
7514.7 kPa	1053.12
7547 kPa	1053.95
7581.8 kPa	1054.97
7615.4 kPa	1055.85
7651.7 kPa	1056.85
7689.7 kPa	1057.93
7725.6 kPa	1058.74
7762.3 kPa	1059.79
7796.7 kPa	1060.54
7833.4 kPa	1061.54
7869.9 kPa	1062.44
7906.3 kPa	1063.38
7940.8 kPa	1064.3
7976.7 kPa	1065.12
8010.3 kPa	1065.98
8045.2 kPa	1066.87
8081.6 kPa	1067.62
8115 kPa	1068.6
8149.9 kPa	1069.37
8185.9 kPa	1070.21
8223.3 kPa	1071.09
8281.3 kPa	1072.48
8320.9 kPa	1073.52
8358.3 kPa	1074.27
8396.8 kPa	1075.12
8431.8 kPa	1075.97
8468.6 kPa	1076.79
8505.7 kPa	1077.66
8541.8 kPa	1078.5
8577.3 kPa	1079.34
8611.7 kPa	1080.05
8649.3 kPa	1080.92
8689.4 kPa	1081.74
8724.6 kPa	1082.52
8800.2 kPa	1084.14
8834.9 kPa	1084.87
8868.8 kPa	1085.56
8902.9 kPa	1086.27
8937.5 kPa	1087.05
8971.8 kPa	1087.76
9005.2 kPa	1088.42
9039.7 kPa	1089.26
9073.1 kPa	1089.94
9106.5 kPa	1090.69
9140.8 kPa	1091.37
9173.4 kPa	1092.03
9205.8 kPa	1092.74
9239.9 kPa	1093.42
9274.7 kPa	1094.03
9308.6 kPa	1094.75
9341.7 kPa	1095.45
9377.4 kPa	1096.15
9410.8 kPa	1096.73
9445.5 kPa	1097.46
9479.4 kPa	1098.06
9548.7 kPa	1099.5
9582.4 kPa	1100.15
9618.6 kPa	1100.84
9652.6 kPa	1101.51
9687.1 kPa	1102.18
9721.9 kPa	1102.81
9756.1 kPa	1103.39
9789.2 kPa	1104.04
9822.6 kPa	1104.65
9858.4 kPa	1105.3
9893.4 kPa	1106.05
9929.5 kPa	1106.67
9963.2 kPa	1107.25
9996.5 kPa	1107.93
